From patent publication EP0777471B1, “INHIBITION OF LEUKOTRIENE BIOSYNTHESIS WITH UREA DERIVATIVES” (MINNESOTA MINING AND MANUFACTURING COMPANY, priority 1994, dated 1996)

What was measured:
[1] = test system: production of Leukotriene B4; test: Rat ex vivo Leukotriene B4 inhibition (oral dosing, blood challenged with A23187); type: in vivo, Rats; settings: two hours post dose
Outline: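 Male CD rats (250 g, non-fasted) dosed orally with compound in PEG 400, 5 rats/group; blood drawn by cardiac puncture before and 2 h after dosing. Heparinized blood challenged with A23187 calcium ionophore, 30 min at 37°C; plasma LTB4 measured by radioimmunoassay. % inhibition = post-dose vs pre-dose LTB4 level.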

[2] = test system: production of Leukotriene C4 in mouse peritoneal macrophages; test: In vitro mouse peritoneal macrophage Leukotriene C4 inhibition (zymosan-stimulated, LTC4 radioimmunoassay); type: cell-based; settings: Zymosan 50 µg/mL
Outline: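 Adherent peritoneal macrophages from female CD-1 mice were preincubated 15 minutes at 37°C with compound (10, 1 and 0.1 µM, duplicate; DMSO). They were then stimulated with 50 µg/mL zymosan for 1 to 2 hours. Leukotriene C4 released into the medium was measured by radioimmunoassay.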

5-lipoxygenase = molecular target: T1, 5-lipoxygenase (Homo sapiens, UniProt P09917); test: 5-Lipoxygenase inhibition in human leukocytes (A23187-stimulated, LTC4 radioimmunoassay); type: cell-based; settings: human leukocytes, A23187 Calcium Ionophore, LTC4 formed; read-out: IC50
T1 construct: Whole human blood is collected by venipuncture into EDTA; endogenous in cells; host or cells: leukocytes isolated from whole human blood (dextran sedimentation, hypotonic lysis)
T1 sequence (P09917 1-674): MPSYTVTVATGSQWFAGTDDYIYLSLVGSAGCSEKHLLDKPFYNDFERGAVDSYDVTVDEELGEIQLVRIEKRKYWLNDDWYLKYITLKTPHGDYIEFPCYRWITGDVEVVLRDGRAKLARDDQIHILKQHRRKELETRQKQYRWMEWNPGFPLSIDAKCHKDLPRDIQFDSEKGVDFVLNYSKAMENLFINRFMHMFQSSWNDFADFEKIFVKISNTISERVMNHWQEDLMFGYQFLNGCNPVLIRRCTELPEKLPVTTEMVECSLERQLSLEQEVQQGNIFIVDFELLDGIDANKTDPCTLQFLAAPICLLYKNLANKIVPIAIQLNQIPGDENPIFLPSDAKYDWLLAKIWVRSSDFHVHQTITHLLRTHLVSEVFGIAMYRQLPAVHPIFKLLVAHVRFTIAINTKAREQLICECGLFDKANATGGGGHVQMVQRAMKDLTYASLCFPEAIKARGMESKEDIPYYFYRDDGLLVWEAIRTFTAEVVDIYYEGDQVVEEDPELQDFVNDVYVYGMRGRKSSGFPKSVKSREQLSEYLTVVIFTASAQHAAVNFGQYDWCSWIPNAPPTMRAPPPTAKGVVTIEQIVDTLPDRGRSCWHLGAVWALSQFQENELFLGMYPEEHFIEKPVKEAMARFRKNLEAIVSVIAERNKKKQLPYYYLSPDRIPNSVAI
Procedure: The test method described below measures the ability of compounds to inhibit 5-lipoxygenase activity in human leukocytes.
Whole human blood is collected by venipuncture into EDTA (1.4 mL of 0.25M per 60 mL of whole blood). The red blood cells are sedimented with a 6% dextran/0.9% sodium chloride solution at a ratio of 25 mL whole blood to 15 mL dextran solution. The blood/dextran combination is mixed by inversion and the red blood cells are allowed to settle out for 45 minutes at ambient temperature. The plasma/dextran supernatant is removed then centrifuged at ambient temperature at 3000 rpm for 10 minutes. The plasma/dextran supernatant is removed and the cells are resuspended in 10 mL of the plasma/dextran solution. […] The pellet is then resuspended into Tris buffer containing 1 mM calcium chloride to provide approximately 1.0 X 10^7 cells/mL.
Compounds are dissolved in dimethyl sulfoxide. […] Each concentration is tested in duplicate.
A 15 µL portion of Tris buffer containing 1 mM calcium chloride is added to each well of a 96 well microtiter plate. A 1 µL portion of drug solution or vehicle (dimethyl sulfoxide) is added to each well followed by the addition of an 75 µL portion of the cell suspension. The plates are gently mixed then allowed to stand at ambient temperature for 10 minutes. A 10 µL portion of 30 µM A23187 Calcium Ionophore (prepared by dissolving the ionophore in DMSO and then diluting 1:80 into the Tris buffer) is added to each well except the wells that contain the blanks (The blank wells measure the level of LTC4 production in the absence of A23187.). The plates are gently mixed then incubated at 37°C for 10 minutes.
Following incubation the plates are centrifuged at 2000 rpm for 1.5 minutes and the supernatant is removed as quickly as possible to stop the reaction. The supernatants are frozen at -20°C until they are assayed.
The supernatants are assayed for the presence of Leukotriene C4 by radioimmunoassay which is performed according to the manufacturer's (Advanced Magnetics; Cambridge, MA) instructions.

| IC50 [2] [nM] | IC50 (5-lipoxygenase) [nM] | SMILES | %I ([1]; 25 mg/Kg) [%] | %I ([1]; 20 mg/Kg) [%] | %I ([1]; 50 mg/Kg) [%] |
| --- | --- | --- | --- | --- | --- |
| 200 | 6 | CSc1ccc(NC(=O)N(O)C2CCCCC2)cc1 [Compound 31, 1-Cyclohexyl-1-hydroxy-3-[4-(methylthio)phenyl]urea] | 40 |  |  |
| 900 | 30 | CCN(O)C(=O)Nc1ccccc1 [Compound 43, 1-ethyl-1-hydroxy-3-phenylurea] |  | 12 | 16 |
